Source: BigSolDB 2.1

COc1cc(Cc2cnc(N)nc2N)cc(OC)c1OC
solubility (mole fraction)
Settings | 293.15 K | 298.45 K | 303.45 K | 308.15 K | 312.95 K | 318.65 K | 322.65 K
in acetonitrile | 0.00035 | 0.000437 | 0.000534 | 0.000664 | 0.000809 | 0.00103 | 0.00127
in ethanol | 0.00071 | 0.00092 | 0.00112 | 0.00134 | 0.00173 | 0.00226 | 0.00304
in ethyl acetate | 0.000276 | 0.000332 | 0.000398 | 0.000481 | 0.000606 | 0.000773 | 0.000966
in isopropanol | 0.000227 | 0.000294 | 0.000434 | 0.000543 | 0.000764 | 0.00106 | 0.00141
in water | 2e-05 | 2.49e-05 | 3.02e-05 | 3.68e-05 | 4.68e-05 | 6.05e-05 | 7.14e-05
